The text below walks through data of ChEMBL document CHEMBL3352578 (J Med Chem, 2014).

pEC50: −log10 of the molar value.

A short description of data set [1]: Metabolic stability in rat liver microsomes assessed as compound metabolized at 5 uM after 15 mins by MS/MS analysis in presence of NADPH. The settings on record: read-out: Drug metabolism. Format: ADME.
Another data set addresses hERG (KCNH2) (Homo sapiens, UniProt Q12809). The data set is described as follows: Inhibition of human ERG channel transfected in HEK293 cells at 3 uM by patch clamp technique. Type of data set: cell-based. The settings on record: HEK293 cells transfected with human ERG channel.
Data set [2] addresses T1, Metabotropic glutamate receptor 2 (Homo sapiens, UniProt Q14416). Nature of the data set: Positive allosteric modulation of human mGlu2 receptor expressed in CHO cells assessed as potentiation of glutamate-induced effect incubated for 30 mins prior to [35S]GTPgamma addition measured after 30 mins. Format: functional, cell-based.
Target sequence in this assay (Q14416 whole entry): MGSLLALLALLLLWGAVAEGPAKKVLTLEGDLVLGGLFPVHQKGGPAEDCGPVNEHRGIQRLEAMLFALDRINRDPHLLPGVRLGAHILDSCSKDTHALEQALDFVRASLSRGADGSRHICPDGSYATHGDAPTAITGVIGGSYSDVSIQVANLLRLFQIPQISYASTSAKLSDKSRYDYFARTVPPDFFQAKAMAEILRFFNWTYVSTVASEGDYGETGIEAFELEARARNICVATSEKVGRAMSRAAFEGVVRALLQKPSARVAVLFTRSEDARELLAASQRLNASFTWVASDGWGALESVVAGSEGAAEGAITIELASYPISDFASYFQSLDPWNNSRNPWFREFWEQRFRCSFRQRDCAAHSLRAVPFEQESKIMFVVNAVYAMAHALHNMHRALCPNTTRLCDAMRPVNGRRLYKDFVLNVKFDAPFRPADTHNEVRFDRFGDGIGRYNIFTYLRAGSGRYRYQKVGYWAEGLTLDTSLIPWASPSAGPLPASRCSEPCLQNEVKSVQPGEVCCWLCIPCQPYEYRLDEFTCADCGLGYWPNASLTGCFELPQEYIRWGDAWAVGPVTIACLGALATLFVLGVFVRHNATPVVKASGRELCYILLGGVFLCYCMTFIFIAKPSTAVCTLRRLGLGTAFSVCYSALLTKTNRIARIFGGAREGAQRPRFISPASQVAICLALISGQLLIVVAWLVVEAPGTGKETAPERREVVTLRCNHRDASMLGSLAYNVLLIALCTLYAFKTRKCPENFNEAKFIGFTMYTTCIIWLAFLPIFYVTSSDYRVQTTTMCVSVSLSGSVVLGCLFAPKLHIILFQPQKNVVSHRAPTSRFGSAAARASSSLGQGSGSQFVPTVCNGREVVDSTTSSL
In data set [3] the target is T1, Metabotropic glutamate receptor 2. The data set is described as follows: Positive allosteric modulation of human mGlu2 receptor expressed in CHO cells assessed as potentiation of glutamate-induced effect incubated for 30 mins prior to [35S]GTPgamma addition measured after 30 mins relative to glutamate. Type of data set: functional, cell-based.
Target sequence in this assay (Q14416 19-872 limits assumed): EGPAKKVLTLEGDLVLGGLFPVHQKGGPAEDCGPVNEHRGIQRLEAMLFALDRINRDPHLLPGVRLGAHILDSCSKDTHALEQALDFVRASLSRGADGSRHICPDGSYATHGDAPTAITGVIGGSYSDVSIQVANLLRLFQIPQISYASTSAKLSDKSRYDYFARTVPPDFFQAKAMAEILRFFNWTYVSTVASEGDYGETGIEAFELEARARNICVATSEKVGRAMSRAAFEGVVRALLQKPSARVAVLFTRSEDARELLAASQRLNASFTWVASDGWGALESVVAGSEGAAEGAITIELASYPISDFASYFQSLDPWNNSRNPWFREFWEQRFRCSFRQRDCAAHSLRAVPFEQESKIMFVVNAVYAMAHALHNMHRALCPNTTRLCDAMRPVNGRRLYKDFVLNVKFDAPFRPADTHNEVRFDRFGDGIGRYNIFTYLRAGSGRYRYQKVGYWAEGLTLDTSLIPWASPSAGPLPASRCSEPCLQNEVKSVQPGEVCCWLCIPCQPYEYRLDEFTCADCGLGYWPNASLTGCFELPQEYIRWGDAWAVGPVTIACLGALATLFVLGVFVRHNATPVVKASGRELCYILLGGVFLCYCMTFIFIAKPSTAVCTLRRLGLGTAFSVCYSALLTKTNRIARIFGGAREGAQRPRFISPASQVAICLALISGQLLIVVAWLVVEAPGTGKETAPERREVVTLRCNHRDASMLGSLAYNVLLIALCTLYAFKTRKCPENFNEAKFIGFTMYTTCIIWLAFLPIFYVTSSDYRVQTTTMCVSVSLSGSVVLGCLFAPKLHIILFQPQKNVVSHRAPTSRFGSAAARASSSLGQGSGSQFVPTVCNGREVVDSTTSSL
Data set [4] is described as follows: Metabolic stability in human liver microsomes assessed as compound metabolized at 5 uM after 15 mins by MS/MS analysis in presence of NADPH. Type of data set: ADME. The settings on record: read-out: Drug metabolism.

Chain of hERG (KCNH2) (Q12809 whole entry): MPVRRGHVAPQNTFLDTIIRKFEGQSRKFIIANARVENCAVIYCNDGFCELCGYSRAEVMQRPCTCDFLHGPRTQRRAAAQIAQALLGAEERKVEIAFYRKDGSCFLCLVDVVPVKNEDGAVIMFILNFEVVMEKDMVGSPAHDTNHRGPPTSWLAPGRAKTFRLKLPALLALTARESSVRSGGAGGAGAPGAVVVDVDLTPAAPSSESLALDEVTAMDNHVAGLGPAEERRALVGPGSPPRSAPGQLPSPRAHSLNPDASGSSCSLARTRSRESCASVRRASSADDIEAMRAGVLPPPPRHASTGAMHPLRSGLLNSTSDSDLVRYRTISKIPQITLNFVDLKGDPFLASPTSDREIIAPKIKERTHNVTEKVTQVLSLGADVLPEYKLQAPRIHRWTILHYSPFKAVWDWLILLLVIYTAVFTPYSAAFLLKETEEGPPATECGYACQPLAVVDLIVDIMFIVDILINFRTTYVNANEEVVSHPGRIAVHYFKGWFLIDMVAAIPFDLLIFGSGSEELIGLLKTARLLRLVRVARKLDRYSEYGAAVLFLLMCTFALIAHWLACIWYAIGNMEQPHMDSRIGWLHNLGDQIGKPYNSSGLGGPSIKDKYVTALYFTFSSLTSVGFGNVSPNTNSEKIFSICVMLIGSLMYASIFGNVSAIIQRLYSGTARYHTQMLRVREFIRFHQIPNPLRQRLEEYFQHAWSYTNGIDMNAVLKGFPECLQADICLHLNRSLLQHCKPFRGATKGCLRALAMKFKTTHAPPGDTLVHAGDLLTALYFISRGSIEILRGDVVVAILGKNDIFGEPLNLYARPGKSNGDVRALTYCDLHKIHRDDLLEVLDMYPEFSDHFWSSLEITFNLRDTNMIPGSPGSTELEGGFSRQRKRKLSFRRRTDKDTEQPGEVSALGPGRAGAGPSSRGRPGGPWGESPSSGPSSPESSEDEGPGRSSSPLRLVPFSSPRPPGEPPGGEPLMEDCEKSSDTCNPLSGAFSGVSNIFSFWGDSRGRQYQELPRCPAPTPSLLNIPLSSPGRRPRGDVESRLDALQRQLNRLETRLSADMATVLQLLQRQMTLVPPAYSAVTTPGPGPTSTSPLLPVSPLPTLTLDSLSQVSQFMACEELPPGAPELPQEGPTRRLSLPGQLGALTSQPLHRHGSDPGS

As for `N#Cc1c(N2CCC(c3ccccc3F)CC2)ccn(CC2CC2)c1=O`, the metabolised at 0.25 h, 5 µM in data set [1] was found to be 42%; in data set [4], 30%. Moreover, 3 µM produced 75% inhibition against hERG (KCNH2). Also, the pEC50 in data set [2] was 7.09. For the same molecule, in data set [3], the Emax turned out to be 282%.
On to `CC(C)CCn1ccc(N2CCN(c3ccccc3)CC2)c(C#N)c1=O`, for which the metabolised at 0.25 h, 5 µM in data set [1] came out at 90%; in data set [4], 50%. Moreover, in data set [2], the pEC50 was 6.18. Besides, the Emax in data set [3] was 118%.
For the molecule `N#Cc1c(N2CCC(c3cccc(F)c3)CC2)ccn(CC2CC2)c1=O`, the figures for the metabolised at 0.25 h, 5 µM in data set [1] and in data set [4] were 37% and 35%, respectively. This molecule came in with an inhibition at 3 µM on hERG (KCNH2) of 87%. The pEC50 in data set [2] was 6.85. In addition, the Emax in data set [3] stood at 268%.
As for `CC(C)CCn1ccc(CCc2ccccc2)c(C#N)c1=O`, the values for the metabolised at 0.25 h, 5 µM in data set [1] and in data set [4] were 99% and 91%, respectively. Moreover, the pEC50 in data set [2] was 6.44. For the same molecule, the Emax in data set [3] turned out to be 168%.
The corresponding values for `CCCCn1ccc(N2CCC(c3ccccc3)CC2)c(C#N)c1=O` are 62%, 30%, 7.02 and 309%.
Consider `N#Cc1c(N2CCC(c3ccc(Cl)cc3)CC2)ccn(CC2CC2)c1=O`, for which the values for the metabolised at 0.25 h, 5 µM in data set [1] and in data set [4] were 21% and 28%, respectively. Further, in data set [2], the pEC50 was 7.32. Besides, in data set [3], the Emax worked out at 249%.
In the case of `CC(C)CCn1ccc(N2CCN(c3ccccn3)CC2)c(C#N)c1=O`, the metabolised at 0.25 h, 5 µM in data set [1] amounted to 54%; in data set [4] it was 51%. In data set [2], the pEC50 was 5.51. The Emax in data set [3] came out at 304%.
The matching figures for `CC(C)CCn1ccc(N2CCN(Cc3ccccc3)CC2)c(C#N)c1=O`: 85%, 38%, 5.33 and 304%.
As for `N#Cc1c(N2CCC(c3c(F)cccc3F)CC2)ccn(CC2CC2)c1=O`, the metabolised at 0.25 h, 5 µM stood at 42% in data set [1] and 18% in data set [4]. Moreover, on hERG (KCNH2), testing at 3 µM gave an inhibition of 86%. In addition, the pEC50 in data set [2] was 7.51. For the same molecule, in data set [3], the Emax came to 291%.
In the case of `O=c1c(C(F)(F)F)c(N2CCC(c3ccccc3)CC2)ccn1CC1CC1`, the results for the metabolised at 0.25 h, 5 µM in data set [1] and in data set [4] were 89% and 33%, respectively. Moreover, in data set [3], the Emax was 239%.
Regarding `CC(C)CCn1ccc(N(C)Cc2ccccc2)c(C#N)c1=O`, the metabolised at 0.25 h, 5 µM was 100% in data set [1] and 69% in data set [4]. Besides, the pEC50 in data set [2] is 4.97. Further, in data set [3], the Emax amounted to 249%.
Take `N#Cc1c(N2CCC(c3ccc(F)cc3)CC2)ccn(CC2CC2)c1=O`: the metabolised at 0.25 h, 5 µM in data set [1] is 36%; in data set [4], 31%. The molecule also returned an inhibition at 3 µM against hERG (KCNH2) of 89%. Moreover, the pEC50 in data set [2] is 7.05. Besides, the Emax in data set [3] amounted to 258%.
On to `CC(C)CCn1ccc(N2CCC(c3ccccc3)CC2)c(C#N)c1=O`, for which the values for the metabolised at 0.25 h, 5 µM in data set [1] and in data set [4] were 97% and 28%, respectively. Further, the pEC50 in data set [2] is 6.99. Moreover, the Emax in data set [3] amounted to 268%.
Regarding `CC(C)CCn1ccc(N2CCc3ccccc3C2)c(C#N)c1=O`, the values for the metabolised at 0.25 h, 5 µM in data set [1] and in data set [4] were 100% and 74%, respectively. Also, in data set [2], the pEC50 is 6.06. Also, the maximal effect (Emax) in data set [3] was 310%.
In the case of `CC(C)CCn1ccc(OCc2ccccc2)c(C#N)c1=O`, the metabolised at 0.25 h, 5 µM stood at 90% in data set [1] and 22% in data set [4]. The pEC50 in data set [2] was 5.53. Further, the Emax in data set [3] was 173%.
Consider `COc1ccccc1C1CCN(c2ccn(CC3CC3)c(=O)c2C#N)CC1`, for which the figures for the metabolised at 0.25 h, 5 µM in data set [1] and in data set [4] were 68% and 53%, respectively. Moreover, testing at 3 µM against hERG (KCNH2) gave an inhibition of 65%. Besides, the pEC50 in data set [2] was 7.46. Moreover, the Emax in data set [3] was found to be 265%.
With `N#Cc1c(N2CCC(c3ccccc3Cl)CC2)ccn(CC2CC2)c1=O`, the values for the metabolised at 0.25 h, 5 µM in data set [1] and in data set [4] were 34% and 22%, respectively. Also, the pEC50 in data set [2] was 7.31. In addition, the Emax in data set [3] was 259%.
The corresponding values for `CC(C)Cn1ccc(N2CCC(c3ccccc3)CC2)c(C#N)c1=O` are 47%, 37%, 6.55 and 316%.
Regarding `CC(C)CCn1ccc(N2CCCCC2)c(C#N)c1=O`, the metabolised at 0.25 h, 5 µM in data set [1] amounted to 100%; in data set [4], 67%. The negative-log EC50 (pEC50) in data set [2] is 4.50. Moreover, the Emax in data set [3] is 185%.
In the case of `N#Cc1c(N2CCC(c3ccccc3)CC2)ccn(CCCC(F)(F)F)c1=O`, the metabolised at 0.25 h, 5 µM was 43% in data set [1] and 18% in data set [4]. Besides, in data set [2], the pEC50 was 6.45. The Emax in data set [3] came out at 302%.
For the molecule `N#Cc1c(N2CCC(c3ccccc3)CC2)ccn(CC2CCC2)c1=O`, the metabolised at 0.25 h, 5 µM in data set [1] stood at 86%; in data set [4], 46%. Also, the pEC50 in data set [2] is 7.26. Further, the Emax in data set [3] is 269%.
Regarding `COc1ccc(C2CCN(c3ccn(CC4CC4)c(=O)c3C#N)CC2)cc1`, the results for the metabolised at 0.25 h, 5 µM in data set [1] and in data set [4] were 57% and 76%, respectively. In data set [2], the pEC50 was 7.01. The maximal effect (Emax) in data set [3] came to 257%.
Regarding `CC(C)CCn1ccc(-c2ccccc2)c(C#N)c1=O`, the metabolised at 0.25 h, 5 µM came to 100% in data set [1] and 36% in data set [4]. The Emax in data set [3] came out at 135%.
As for `N#Cc1c(N2CCC(c3ccc(F)cc3F)CC2)ccn(CC2CC2)c1=O`, the metabolised at 0.25 h, 5 µM was found to be 34% in data set [1] and 17% in data set [4]. The pEC50 in data set [2] is 7.17. The Emax in data set [3] is 272%.
Take `N#Cc1c(N2CCC(c3cccc(C(F)(F)F)c3)CC2)ccn(CC2CC2)c1=O`: the metabolised at 0.25 h, 5 µM was 39% in data set [1] and 35% in data set [4]. The inhibition at 3 µM at hERG (KCNH2) was found to be 97%. Besides, in data set [2], the pEC50 is 7.34. Moreover, the Emax in data set [3] is 191%.
Turning to `CC(C)CCn1ccc(N2CCCC(c3ccccc3)C2)c(C#N)c1=O` (configuration not stated), the metabolised at 0.25 h, 5 µM in data set [1] amounted to 98%; in data set [4] it was 80%. In data set [2], the pEC50 was 5.48. Further, the Emax in data set [3] was determined as 231%.
The corresponding values for `N#Cc1c(N2CCC(c3ccccc3)CC2)ccn(CCC2CC2)c1=O` are 61%, 50%, 6.75 and 316%.
For the molecule `N#Cc1c(N2CCC(c3cc(F)cc(F)c3)CC2)ccn(CC2CC2)c1=O`, the metabolised at 0.25 h, 5 µM in data set [1] amounted to 45%; in data set [4] it was 30%. Besides, 3 µM produced 95% inhibition on hERG (KCNH2). In addition, in data set [2], the pEC50 was 6.82. For the same molecule, the Emax in data set [3] stood at 234%.
